Reference: ChEMBL document CHEMBL2150877, “γ-Secretase modulators as potential disease modifying anti-Alzheimer's drugs” (J Med Chem, 2011)

experiment: Inhibition of gamma secretase assessed as reduction in Abeta42 production

Row | SMILES | IC50 [nM]
1 | Cc1cn(-c2ccc(Nc3ncc4c(n3)C(c3ccccc3)CCC4)cc2F)cn1 (stereo unspecified) | 130
2 | COc1cc(Nc2ccnn(Cc3ccc(F)cc3)c2=O)ccc1-n1cnc(C)c1 | 345
3 | COc1cc(-c2cn(C3CCc4c(F)cccc4N(CC(F)(F)F)C3=O)nn2)ccc1Nc1cccnc1 (stereo unspecified) | 226
4 | COc1ccc2c(c1)c(CC(=O)O)c(C)n2C(=O)c1ccc(Cl)cc1 [INDOMETHACIN] | 25000
5 | COc1cc(/C=C2\CCCn3c(-c4ccc(F)cc4)cnc32)ccc1-n1cnc(C)c1 | 170
6 | COc1cc(Nc2ncc3c(n2)C(c2ccccc2)CCC3)ccc1-n1cnc(C)c1 (stereo unspecified) | 840
7 | COc1cc(Nc2nc(Cc3ccc(Cl)cc3)c(CO)s2)ccc1-n1cnc(C)c1 | 340
8 | CC(C)CC(C(=O)O)c1cc(/C=C/c2ccc(-c3ccccc3)cc2)cc(-c2ccc(Cl)c(C(F)(F)F)c2)c1 (stereo unspecified) | 150
9 | COc1cc(Nc2nc3c(c(COC4CCCC4)n2)COCC3)ccc1-n1cnc(C)c1 | 22
10 | CC(C)CCN1CC(c2cc(-c3ccc(C(F)(F)F)cc3)cc(C(CC(C)C)C(=O)O)c2)CCC1C(F)(F)F (stereo unspecified) | 370
11 | CC(C)CC(C(=O)O)c1cc(Cl)c(OCC2CC2)c(-c2ccc3nonc3c2)c1 (stereo unspecified) | 274
12 | COc1nc(-c2nc3n(n2)CCC[C@@H]3c2cc(N(CC3CC3)CC(F)(F)F)ccc2Cl)ccc1-n1cnc(C)c1 | 6
13 | CC(C)CC(C(=O)O)c1cc(-c2ccc(C(F)(F)F)cc2)cc(C2CCC(C(F)(F)F)N(c3cc(F)cc(C(F)(F)F)c3)C2)c1 (stereo unspecified) | 310
14 | COc1nc(-c2nc3n(n2)CCC[C@@H]3c2cc(N(CC3CC3)CC3CC3)ccc2Cl)ccc1-n1cnc(C)c1 | 4
15 | CCCCCCCCCCn1c2ccc(Cl)cc2c2ccc(C(C)C(=O)O)cc21 (stereo unspecified) | 2900
16 | CC(C)CCN(Cc1cc(-c2ccc(C(F)(F)F)cc2)cc(C(CC(C)C)C(=O)O)c1)Cc1ccc(F)c(F)c1 (stereo unspecified) | 65
17 | COc1cc(-c2cn(CC(=O)N(CC(F)(F)F)c3ccc(F)c(Cl)c3)nn2)ccc1-n1cnc(C)c1 | 84
18 | COc1cc(-c2cn([C@@H]3CCc4c(C)cc(C)cc4N(CC(F)(F)F)C3=O)nn2)ccc1-n1cnc(C)c1 | 21
19 | COc1cc(NC(=O)C(C)c2cccc(F)n2)ccc1-c1ccnc(C)c1 (stereo unspecified) | 557
20 | COc1cc(/C=C2\OC(C)(C)CN([C@@H](C)c3ccc(F)cc3)C2=O)ccc1-n1cnc(C)c1 | 76

Other lines, results leading:

Row | IC50 [nM] | SMILES
21 | 440 | CC(C)CC(C(=O)O)c1cc(-c2ccc(C(F)(F)F)cc2)cc(N2CCC(C(F)(F)F)CC2)c1 (stereo unspecified)
22 | 69 | CC(C)CC(C(=O)O)c1cc(Cl)c(OCC2CC2)c(-c2ccc(C(F)(F)F)cc2)c1 (stereo unspecified)
23 | 70 | COc1cc(/C=C/C(=O)NCc2cccc(-c3ccccc3)c2)ccc1-n1cnc(C)c1
24 | 108 | COc1cc(NC(=O)C(C)c2ccc3c(c2)[nH]c2ccc(Cl)cc23)ccc1-c1ccnc(C)c1 (stereo unspecified)
25 | 3300 | COc1ccccc1NC(=O)Nc1ccc(-c2ccnc(C)c2)c(OC)c1
26 | > 200 | COc1cc(C2CN(C(C)=O)CC3(CCCN(C(C)c4ccc(F)cc4)C3=O)C2)ccc1-n1cnc(C)c1 (stereo unspecified)
27 | 410 | CC(C)CC(C(=O)O)c1cc(CCc2cc(F)cc(F)c2)cc(-c2ccc(C(F)(F)F)cc2)c1 (stereo unspecified)
28 | > 200 | COc1cc(C2CC23CCCN(C(C)c2ccc(F)cc2)C3=O)ccc1-n1cnc(C)c1 (stereo unspecified)
29 | 131 | COc1cc(NC(=O)NC(C)Cc2ccc(F)cc2)ccc1-c1ccnc(C)c1 (stereo unspecified)
30 | 8 | COc1cc(C)c(Nc2nc(-c3ccc(-n4cnc(C)c4)c(OC)n3)n[nH]2)cc1C(C)C
31 | 2240 | COc1cc(-c2cn(C(F)(F)c3ccc(C(F)(F)F)cc3)nn2)ccc1-n1cnc(C)c1
32 | 2500 | COc1cc(C(=O)c2c(OC)cnn(C(C)c3ccccc3)c2=O)ccc1-n1cnc(C)c1 (stereo unspecified)
33 | 240 | COc1cc(Nc2ncc3c(n2)C(c2ccccc2)CCC3)ccc1-c1cnn(C)c1 (stereo unspecified)
34 | 12 | COCc1cc(F)ccc1[C@H]1CCCn2nc(/C=C/c3ccc(-n4cnc(C)c4)c(OC)c3)nc21
35 | 537 | COc1cc(-c2cn(C3CCc4c(F)cccc4N(CC(F)(F)F)C3=O)nn2)ccc1Oc1cccnc1 (stereo unspecified)
36 | 60 | COc1cc(/C=C2\CCCN([C@H](c3cc(F)c(F)c(F)c3)[C@@H](C)O)C2=O)ccc1-n1cnc(C)n1
